Test results taken from ChEMBL document CHEMBL6120940, “Discovery of N-Aryl-N'-[4-(aryloxy)cyclohexyl]squaramide-Based Inhibitors of LXR/SREBP-1c Signaling Pathway Ameliorating Steatotic Liver Disease: Navigating the Role of SIRT6 Activation” (J Med Chem, 2024).
The source made the active and inactive calls. The calls are words filed in the database; no cut-off is given here.

Key:
[1] = molecular target: T1, Oxysterols receptor LXR-alpha (Homo sapiens) (UniProt Q13133); experiment: Inhibition of LXRalpha in HEK293 cells expressing LXRE at 2.5 to 5 uM preincubated for 30 mins followed by T0901317 addition and measured after 24 hrs by Dual-glo luciferase assay; format: cell-based; conditions: dose 2.5-5 µM, time 24.5 hrs
T1 sequence (whole entry): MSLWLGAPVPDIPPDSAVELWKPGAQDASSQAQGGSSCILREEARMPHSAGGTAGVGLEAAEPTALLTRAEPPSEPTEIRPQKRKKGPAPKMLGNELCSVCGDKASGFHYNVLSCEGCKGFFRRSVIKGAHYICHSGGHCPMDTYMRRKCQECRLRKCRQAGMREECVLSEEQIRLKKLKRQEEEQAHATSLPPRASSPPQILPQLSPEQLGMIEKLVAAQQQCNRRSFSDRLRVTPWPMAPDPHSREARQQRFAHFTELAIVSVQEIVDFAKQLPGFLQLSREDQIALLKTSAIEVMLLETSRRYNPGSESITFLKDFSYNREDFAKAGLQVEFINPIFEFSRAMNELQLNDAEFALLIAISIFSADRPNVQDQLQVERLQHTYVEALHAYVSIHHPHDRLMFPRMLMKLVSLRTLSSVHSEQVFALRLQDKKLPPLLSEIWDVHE

[2] = test system: HepG2; experiment: Downregulation of ACACA mRNA level in human HepG2 cells at 10 uM pretreated with compound for 30 mins followed by […] addition and measured after 12 hrs by RT-qPCR analysis; format: functional, cell-based; conditions: time 12.5 hrs
[3] = test system: HepG2; experiment: Downregulation of ACACA gene expression in human HepG2 cells in presence of T0901317 by RNA sequencing analysis; format: functional, cell-based
[4] = test system: HepG2; experiment: Activation of AMPK in human HepG2 cells assessed as increase in ratio of ACACA phosphorylation to total ACACA at 5 uM pretreated with compound for 30 mins followed by T0901317 addition and measured after 12 hrs by immunoblot analysis; format: cell-based; conditions: filed as activator, time 12.5 hrs
[5] = MRT infinity in 16 hrs fasted ICR mouse at 2 mg/kg, iv measured upto 8 hrs by LC-MS/MS analysis; format: ADME, organism-based; conditions: in vivo
[6] = test system: Mus musculus; experiment: Anti-lipogenic activity against high fat died induced male C57BL/6J mouse obesity model assessed as downregulation of Cxcl1 mRNA level at 15 mg/kg, po administered three times per week and measured after 5 weeks by RT-qPCT analysis; format: functional, organism-based
[7] = molecular target: T2, CYP1A2 (Homo sapiens, UniProt P05177); experiment: Inhibition of CYP1A2 in human liver microsomes at 10 uM using phenacetin as substrate preincubated for 5 mins followed by NADPH generating system addition and measured after 15 mins relative to control; format: ADME, Microsome; conditions: probe phenacetin, time 20 min
T2 sequence (P05177 whole entry): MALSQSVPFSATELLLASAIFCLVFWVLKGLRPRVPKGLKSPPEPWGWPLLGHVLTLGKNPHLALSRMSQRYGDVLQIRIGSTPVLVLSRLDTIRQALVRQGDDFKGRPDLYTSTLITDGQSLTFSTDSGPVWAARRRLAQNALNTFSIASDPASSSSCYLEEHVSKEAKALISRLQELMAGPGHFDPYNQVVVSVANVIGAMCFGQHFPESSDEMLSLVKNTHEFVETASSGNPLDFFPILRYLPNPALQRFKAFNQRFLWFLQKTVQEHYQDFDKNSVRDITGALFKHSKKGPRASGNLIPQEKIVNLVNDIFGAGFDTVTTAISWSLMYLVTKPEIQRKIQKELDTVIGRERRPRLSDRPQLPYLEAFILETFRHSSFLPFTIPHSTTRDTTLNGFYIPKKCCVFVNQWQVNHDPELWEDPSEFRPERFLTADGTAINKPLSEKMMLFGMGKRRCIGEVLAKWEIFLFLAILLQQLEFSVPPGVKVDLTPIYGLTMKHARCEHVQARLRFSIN

[8] = molecular target: CYP2C19 (Homo sapiens, UniProt P33261); experiment: Inhibition of CYP2C19 in human liver microsomes at 10 uM using S-mephenytoin as substrate preincubated for 5 mins followed by NADPH generating system addition and measured after 15 mins relative to control; format: ADME, Microsome; conditions: probe S-mephenytoin, time 20 min
[9] = test system: Mus musculus; experiment: Anti-lipogenic activity against high fat died induced male C57BL/6J mouse obesity model assessed as reduction AST level in serum at 15 mg/kg, po administered three times per week and measured for 5 weeks; format: functional, organism-based
[10] = test system: HepG2; experiment: Downregulation of FASN mRNA level in human HepG2 cells at 10 uM pretreated with compound for 30 mins followed by […] addition and measured after 12 hrs by RT-qPCR analysis; format: functional, cell-based; conditions: time 12.5 hrs
[11] = test system: AML12; experiment: Downregulation of SREBP-1c expression level in mouse AML12 cells at 10 uM pretreated with compound for 30 mins followed by T0901317 addition and measured after 12 hrs by RT-qPCR analysis; format: functional, cell-based; conditions: time 12.5 hrs
[12] = Metabolic stability in rat liver microsomes at 1 uM measured after 30 mins in presence of NADPH regeneration system by LC-MS/MS analysis; format: ADME, Microsome; conditions: read-out: Stability
[13] = test system: Mus musculus; experiment: Anti-lipogenic activity against high fat died induced male C57BL/6J mouse obesity model assessed as downregulation of F4/80 mRNA level at 15 mg/kg, po administered three times per week and measured after 5 weeks by RT-qPCT analysis; format: functional, organism-based
[14] = test system: Mus musculus; experiment: Anti-lipogenic activity against high fat died induced male C57BL/6J mouse obesity model assessed as reduction in liver weight at 15 mg/kg, po administered three times per week and measured for 5 weeks; format: functional, organism-based
[15] = AUC infinity in 16 hrs fasted ICR mouse at 20 mg/kg, po measured upto 8 hrs by LC-MS/MS analysis; format: ADME, organism-based; conditions: in vivo
[16] = test system: HepG2; experiment: Downregulation of FASN gene expression in human HepG2 cells in presence of T0901317 by RNA sequencing analysis; format: functional, cell-based
[17] = test system: HepG2; experiment: Downregulation of LXR level in human HepG2 cells transfected with SIRT6 SiRNA at 10 uM preincubated for 30 mins followed by T0901317 addition and measured after 12 hrs; format: functional, cell-based; conditions: time 12.5 hrs
[18] = test system: Hepatocyte; experiment: Lipid lowering effect on palmitic acid induced lipid accumulation in mouse Hepatocyte at 5 uM incubated for 30 mins by Oil red O staining based analysis; format: functional, cell-based
[19] = test system: HepG2; experiment: Cytotoxicity against human HepG2 cells at >30 uM measured after 24 hrs by CCK-8 method; format: functional, cell-based
[20] = test system: Hepatocyte; experiment: Inhibition of Scd level in mouse hepatocyte at 10 uM preincubated with compound for 30 mins followed by T0901317 addition and measured after 12 hrs; format: functional, cell-based; conditions: time 12.5 hrs
[21] = molecular target: CYP2C9 (Homo sapiens, UniProt P11712); experiment: Inhibition of CYP2C9 in human liver microsomes at 10 uM using diclofenac as substrate preincubated for 5 mins followed by NADPH generating system addition and measured after 15 mins relative to control; format: ADME, Microsome; conditions: probe diclofenac, time 20 min
[22] = Clearance in 16 hrs fasted ICR mouse at 2 mg/kg, iv measured upto 8 hrs by LC-MS/MS analysis; format: ADME, organism-based; conditions: in vivo
[23] = test system: Mus musculus; experiment: Anti-lipogenic activity against high fat died induced male C57BL/6J mouse obesity model assessed as reduction in lipid droplet formation at 15 mg/kg, po administered three times per week and measured for 5 weeks by H and E staining based analysis; format: functional, organism-based
[24] = test system: Hepatocyte; experiment: Effect on Ppara gene expression in mouse hepatocyte; format: functional, cell-based

Sequence of CYP2C9 (P11712 whole entry): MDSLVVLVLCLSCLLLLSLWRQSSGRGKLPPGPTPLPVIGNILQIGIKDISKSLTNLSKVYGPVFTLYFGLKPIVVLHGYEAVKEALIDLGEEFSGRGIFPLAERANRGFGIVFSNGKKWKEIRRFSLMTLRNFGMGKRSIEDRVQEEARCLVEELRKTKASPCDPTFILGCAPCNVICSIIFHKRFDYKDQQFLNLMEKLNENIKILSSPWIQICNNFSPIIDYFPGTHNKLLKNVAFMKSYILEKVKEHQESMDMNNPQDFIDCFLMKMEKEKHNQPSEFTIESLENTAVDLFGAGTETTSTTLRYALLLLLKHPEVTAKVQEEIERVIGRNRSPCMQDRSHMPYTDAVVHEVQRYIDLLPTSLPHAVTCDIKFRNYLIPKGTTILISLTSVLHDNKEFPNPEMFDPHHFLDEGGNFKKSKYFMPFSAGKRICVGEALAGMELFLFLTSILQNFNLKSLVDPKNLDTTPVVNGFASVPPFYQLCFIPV
Sequence of CYP2C19 (P33261 whole entry): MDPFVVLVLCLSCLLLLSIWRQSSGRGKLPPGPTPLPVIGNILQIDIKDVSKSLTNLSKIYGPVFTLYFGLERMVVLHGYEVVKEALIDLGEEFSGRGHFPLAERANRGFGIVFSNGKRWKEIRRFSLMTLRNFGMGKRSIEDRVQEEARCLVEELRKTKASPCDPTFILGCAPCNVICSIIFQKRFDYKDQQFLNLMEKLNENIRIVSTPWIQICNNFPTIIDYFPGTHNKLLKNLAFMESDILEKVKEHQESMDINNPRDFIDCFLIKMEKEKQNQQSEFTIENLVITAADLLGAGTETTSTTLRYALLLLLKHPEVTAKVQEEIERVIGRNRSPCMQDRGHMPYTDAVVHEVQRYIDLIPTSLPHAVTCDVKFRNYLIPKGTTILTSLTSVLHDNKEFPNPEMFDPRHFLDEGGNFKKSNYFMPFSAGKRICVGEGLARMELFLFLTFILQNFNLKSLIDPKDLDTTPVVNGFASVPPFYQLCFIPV

- inhibition [1]: Active
- MRT inf [5]: 1.3 h
- inhibition at 0.25 h, 10 µM [7]: 98%
- inhibition at 0.25 h, 10 µM [8]: 41.1%
- remaining at 0.5 h, 1 µM [12]: 32.5%
- AUC(0-inf) [15]: 2890 ng·h/mL
- inhibition at 0.25 h, 10 µM [21]: 60.5%
- clearance [22]: 13.3 mL/min/kg
SMILES: COc1ccccc1Nc1c(N[C@H]2CC[C@H](Oc3ccc([N+](=O)[O-])cc3)CC2)c(=O)c1=O
- Activity [2]: Active
- Activity [3]: Active
- Activity [4]: Active
- Activity [6]: Active
- Activity [9]: Active
- Activity [10]: Active
- Activity [11]: Active
- Activity [13]: Active
- Activity [14]: Active
- Activity [16]: Active
- Activity [17]: inactive
- Activity [18]: Active
- Activity [19]: Active
- inhibition [20]: Active
- Activity [23]: Active
- Activity [24]: inactive
